Molecular target: T1, yeast proteasome (Saccharomyces cerevisiae, UniProt P30656)
T1 construct: gene PRE2; yeast proteasome (TUM Groll group); with other subunits of the yeast proteasome
T1 sequence (P30656 76-287): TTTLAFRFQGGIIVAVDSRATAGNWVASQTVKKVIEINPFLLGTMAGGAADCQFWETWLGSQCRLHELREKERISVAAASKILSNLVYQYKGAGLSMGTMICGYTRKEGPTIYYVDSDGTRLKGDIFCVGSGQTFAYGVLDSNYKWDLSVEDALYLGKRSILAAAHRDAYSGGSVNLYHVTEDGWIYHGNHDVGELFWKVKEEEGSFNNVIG
Assay: fluorescence intensity assay with Suc-Leu-Leu-Val-Tyr-AMC substrate
Format: biochemical

COc1ccc(C[C@H](NC(=O)[C@H](C)NC(=O)CN2CCOCC2)C(=O)N[C@@H](Cc2ccccc2)C(=O)[C@@]2(C)CO2)cc1 [ONX-0914]
IC50: 0.0366 nM

— article PMC8951328, “New Metabolites from the Marine Sponge Scopalina hapalia Collected in Mayotte Lagoon” (Marine Drugs, 2022)
